# Read-outs that look alike come from different tables or passages of the source.
# Columns and labels:
# [1] = system: hematopoietic stem cells (LSK: lineage negative, Sca1+, ckit+); details: mice, 8.3-25 mg/kg anti-CD117 and anti-CD47 antibodies, two doses of 50 mg/kg cyclophosphamide, vs vehicle or antibodies alone
# Method: In another experiment, immunocompetent mice (C57Bl/6 or Balb/C) were dosed with 8.3-25 mg/kg of anti-CD117 and anti-CD47 antibodies with or without two doses of 50 mg/kg of cyclophosphamide approximately 48 hours apart. Five to seven days after antibody treatment, mouse bone marrow was analyzed by flow cytometry or plated in methocellulose medium to evaluate impacts on the hematopoietic stem cells. […] FIG. 3.
# bone marrow macrophages = details: mice; for F4/80+ macrophage staining in bone marrow smears (pathology): Ctx dosed at 2×100 mg/kg, FIG. 2B, 100 mg/kg; for F4/80+ macrophage staining in bone marrow smears (pathology) / activation status of macrophages recruited to the bone marrow (FcγRI signal): compared to vehicle; for activation status of macrophages recruited to the bone marrow (FcγRI signal): FIG. 2A bottom panel
# Method: Immunocompetent mice (C57Bl/6 or Balb/C) were dosed with vehicle of one of four different cyclophosphamide (Cytoxan) regimens including: one dose of 50 mg/kg, one dose of 100 mg/kg, two doses of 50 mg/kg approximately 48 hours apart, and two doses of 100 mg/kg approximately 48 hours apart. Three days following the final dose of the regimen, mouse bone marrow was evaluated for macrophage number and phenotype of. Flow cytometry was used to characterize bone marrow macrophages. Briefly, bone marrow was stained with murine macrophage markers including CD11b, F4/80, CD16 (FcγRIII; marker of activated macrophages), CD32 (FcγRII; inhibitory macrophage marker), CD68, and CD64 (FcγRI; marker of activated macrophages). In addition, bone marrow smears were prepared for pathology analysis and stained with F4/80 to quantify macrophages.
compound,measurement,setting,value
O=P1(N(CCCl)CCCl)NCCCO1 (centres unmarked) [cyclophosphamide],depletion of stem cells (LSK) in the bone marrow,"[1]; 5-7 days after antibody, FIG. 3 left",enhanced the antibody-mediated depletion
same,number of colony forming cells (CFUs) from bone marrow,"[1]; methocellulose, FIG. 3 right",reduced the number of colony forming cells
same,increase of macrophage content in the bone marrow,"bone marrow macrophages; 1 or 2 doses of 50 or 100 mg/kg, three days after final dose, flow cytometry, FIG. 2A top panel",up to 2.5 fold
same,F4/80+ macrophage staining in bone marrow smears (pathology),bone marrow macrophages,increased macrophage staining
same,F4/80+ macrophage staining in bone marrow smears (pathology),bone marrow macrophages; listed as Cyclophosphamide,increase
same,macrophage recruitment in bone marrow compared to vehicle,bone marrow macrophages; FIG. 2A top panel,increased macrophage recruitment
same,activation status of macrophages recruited to the bone marrow (FcγRI signal),bone marrow macrophages,increased macrophage activation
same,activation status of macrophages recruited to the bone marrow (FcγRI signal),bone marrow macrophages; listed as Cyclophosphamide,enhanced activation status
